Reference: paper PMC2676116 (Molecular cancer therapeutics, 2009)

Tests used:
[1] = target: T1, Tdp1 (Homo sapiens, UniProt Q9NUW8); conditions: cited from earlier work
[2] = target: T1, Tdp1; experiment: Secondary radiolabel gel-based assay; type: biochemical; conditions: Fig. 5B & C
[3] = target: T1, Tdp1; experiment: Tdp1 AlphaScreen HTS assay; type: biochemical; conditions: for Tdp1 inhibition (in words): AlphaScreen primary / follow-up HTS assay, Fig. 5C
[4] = target: H493R Tdp1 mutant (Homo sapiens, UniProt Q9NUW8, H493R); experiment: SCAN1 Tdp1 mutant covalent Tdp1-DNA intermediate; type: biochemical; conditions: for accumulation of the covalent Tdp1-DNA intermediate: 10 μM concentration, H493R Tdp1 100 nM
H493R Tdp1 mutant, sequence (Q9NUW8 whole entry H493R): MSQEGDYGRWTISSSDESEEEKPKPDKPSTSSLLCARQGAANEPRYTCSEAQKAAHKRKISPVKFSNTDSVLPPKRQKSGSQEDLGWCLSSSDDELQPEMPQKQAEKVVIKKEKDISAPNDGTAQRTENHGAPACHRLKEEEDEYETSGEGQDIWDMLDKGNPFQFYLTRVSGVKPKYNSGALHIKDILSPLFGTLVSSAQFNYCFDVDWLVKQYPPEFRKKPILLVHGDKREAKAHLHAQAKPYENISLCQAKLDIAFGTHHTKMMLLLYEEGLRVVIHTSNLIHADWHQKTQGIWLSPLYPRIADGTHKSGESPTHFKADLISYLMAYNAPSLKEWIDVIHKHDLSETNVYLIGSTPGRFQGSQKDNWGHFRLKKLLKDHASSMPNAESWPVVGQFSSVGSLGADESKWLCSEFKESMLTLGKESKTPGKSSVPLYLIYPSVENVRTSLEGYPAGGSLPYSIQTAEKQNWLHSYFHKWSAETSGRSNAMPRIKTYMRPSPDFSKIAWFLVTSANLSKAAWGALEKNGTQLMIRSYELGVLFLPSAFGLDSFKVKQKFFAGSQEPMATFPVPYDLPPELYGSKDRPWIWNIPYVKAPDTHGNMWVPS

[5] = system: CD-45 associated PTP; conditions: cited from earlier work

T1 sequence (Q9NUW8 whole entry): as the sequence (Q9NUW8 whole entry H493R) above, with R493H counted along it

| Compound | concentration at which Tdp1 is inhibited (in words) [1] | Tdp1 inhibition (in words) [2] | Tdp1 inhibition (in words) [3] | accumulation of the covalent Tdp1-DNA intermediate [4] | other results |
| --- | --- | --- | --- | --- | --- |
| N=C(N)c1ccc(-c2ccc(-c3ccc(C(=N)N)cc3)o2)cc1 [Furamidine, furamidine] | micromolar concentrations |  |  |  |  |
| CN(N=O)c1cc(O)ccc1O [dephostatin] |  | only a trace level of inhibition | only trace inhibition | much weaker effect | Tdp1 inhibition (in words) ([2]; listed as Dephostatin): only trace inhibition; effect on binding of the Tdp1 DNA substrate (DNA trapping) ([4]; SCAN1 Tdp1 mutant): almost no effect |
| CN(N=O)c1ccc(O)c(O)c1 [methyl-3,4-dephostatin] |  | sub-micromolar concentration | sub-micromolar concentration | completely prevented | inhibition of CD-45 associated PTP [5]: does not inhibit |
| [O]=[W](=[O])([O-])[O-] [tungstate] | millimolar concentrations |  |  |  |  |
| [O]=[V]([O-])([O-])[O-] [vanadate] | millimolar concentrations |  |  |  | Tdp1 inhibition potency (in words) ([3]; AlphaScreen assay, 384-well, Fig. 3C): inhibition in the sub-millimolar range |
